Patent publication US11008605B2, “Analysis of single-stranded RNA” (VILNIUS UNIVERSITY, priority 2015, dated 2021)

Assays:
Hs-piRMT [1] = molecular target: T1, Hs-piRMT (Homo sapiens, UniProt Q5T8I9); assay: Metal ion requirement of piRMT methylation of ssRNA miR173.1 (NaIO4/β-elimination, PAG autoradiography); assay type: biochemical; conditions: 10 mM metal ion, 1 μM piRMT, 0.2 μM miR173.1, 0.1 mM AdoMet, 30 min, 37° C.
Procedure: (§1) To test the requirement of different metal cofactors, 20 μl reaction volumes, containing reaction buffer [10 mM Tris-HCl (pH 7.4), 50 mM NaCl, 0.1 mg/ml BSA, 5% (v/v) glycerol and 0.05 u/μl RiboLock (Thermo Scientific)], 0.2 μM ^32P-labelled miR173.1 (5′-[…]-3′, 22 nt) (SEQ ID NO: 3), 0.1 mM AdoMet, 10 mM metal ion and 1 μM of piRMT proteins' were mixed. After 30 min of incubation at 37° C., the degree of modification was determined by NaIO4/β-elimination reaction, during which RNA was treated with 0.2 mM NaIO4 in borax/boric acid buffer [0.06 M, pH 8.6] for 15 min followed by 75 min incubation in borax/boric acid buffer II [0.06 M pH 9.6] at 42° C. Reaction samples were analyzed in 13% denaturing polyacrylamide gel (PAG) and autoradiographed. Fractions of methylated RNA, represented by bands with lower electrophoretic mobility, were evaluated using Multi Gauge version 3.0 software (Fujifilm). The depletion of metal ions by EDTA in the reaction mixture, together with the sample without any metal cofactor added, further confirms that the effective piRMT methylation is due to Co^2+ and Co^3+ ions. B. Column-diagram of RNA methylation efficiency with different metal cofactors. Results are average of duplicate experiments±S.D.

Dm-piRMT = molecular target: T2, Dm-piRMT (Drosophila melanogaster, UniProt Q7K175); assay: as above; assay type: biochemical; parameters: modification efficiency towards RNA substrates with different 3′ terminal nucleotides (U, C, A, G): dose or concentration left out as unconfirmed
T2 sequence (Q7K175 1-391): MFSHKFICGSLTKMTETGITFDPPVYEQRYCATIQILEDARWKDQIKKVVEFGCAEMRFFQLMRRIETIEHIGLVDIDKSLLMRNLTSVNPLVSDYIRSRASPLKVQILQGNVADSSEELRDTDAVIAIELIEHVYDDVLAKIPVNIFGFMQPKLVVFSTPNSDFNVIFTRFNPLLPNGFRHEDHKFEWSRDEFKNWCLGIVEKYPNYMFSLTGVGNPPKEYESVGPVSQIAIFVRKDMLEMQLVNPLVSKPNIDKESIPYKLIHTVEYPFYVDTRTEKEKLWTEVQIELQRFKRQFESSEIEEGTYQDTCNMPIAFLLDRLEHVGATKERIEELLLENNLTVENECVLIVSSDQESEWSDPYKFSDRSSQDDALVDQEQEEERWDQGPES
Procedure: as §1, with “10 mM metal ion and 1 μM of piRMT proteins' were mixed.” left out
B. Column-diagram of modification efficiency of miR173.1 with different 3′ terminal nucleotides. Results are average of two experiments±S.D.

Hs-piRMT [2] = molecular target: T1, Hs-piRMT; conditions: Mn2+ as metal cofactor; cited from earlier work

T1 sequence (Q5T8I9 whole entry): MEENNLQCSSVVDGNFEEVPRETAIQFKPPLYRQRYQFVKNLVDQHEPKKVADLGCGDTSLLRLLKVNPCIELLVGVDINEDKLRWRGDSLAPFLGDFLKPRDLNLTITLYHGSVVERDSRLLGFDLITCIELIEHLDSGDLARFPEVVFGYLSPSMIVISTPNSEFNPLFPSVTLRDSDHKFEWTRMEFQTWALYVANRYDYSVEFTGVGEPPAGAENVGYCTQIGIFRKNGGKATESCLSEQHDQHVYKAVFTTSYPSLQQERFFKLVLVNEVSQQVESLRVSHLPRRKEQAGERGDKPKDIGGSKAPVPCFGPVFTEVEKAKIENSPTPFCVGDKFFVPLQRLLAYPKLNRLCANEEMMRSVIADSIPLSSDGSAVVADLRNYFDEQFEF

Structure (SMILES) | degree of methylation of ssRNA substrate with metal ion cofactor (Hs-piRMT [1]) | degree of methylation of ssRNA substrate with metal ion cofactor (Dm-piRMT; 10 mM metal ion, 1 μM piRMT, 0.2 μM miR173.1, 0.1 mM AdoMet, 30 min, 37° C.) | modification efficiency towards RNA substrates with different 3′ terminal nucleotides (U, C, A, G) (Dm-piRMT; Co2+ as metal cofactor, miR173.1 variants) | RNA modification level in presence of metal ion (Hs-piRMT [2])
[Co+2] [Co^2+] | full methylation | full methylation | equally effective modification | 
[Mn+2] [Mn^2+] |  |  |  | seemingly low levels
